# Key:
# MT1-F = target: T1, MT1-F (Homo sapiens, UniProt P50281); test: Co-immunoprecipitation with MT1-F using anti-FLAG M2 beads (COS1 cells); assay type: binding; details: co-expressed in COS1 cells (FIG. 18)
# T1 construct: expressed in transfected cells
# Description: Transfected COS1 cells were lysed in a RIPA buffer (50 mM Tris-HCl, pH 7.5; 150 mM NaCl; 1% Triton-X100; 1% sodium deoxycolate; 0.1% SDS; 1 mM EDTA; 1 mM PMSF; 10 μM E-64; 0.02% NaN3) at room temperature for 1 hr. Cell lysates were centrifuged at 15,000 rpm in Eppendorf tubes, and the supernatant was reacted with anti-FLAG M2 antibody-conjugated beads (Sigma) at 4° C. for 1 hr. The beads were washed three times with a RIPA buffer and once with Tris-buffered saline (pH 7.5) (TBS). Bound proteins were eluted by the FLAG peptide ([…] 200 μg/ml) (Sigma) in TBS, and subjected to Western blot analysis using a monoclonal mouse anti-FLAG epitope M2 antibody (Sigma), a monoclonal mouse anti-c-Myc antibody (Ab-1) (Oncogene, MA, USA; 1 μg/ml), a rabbit anti-(human MT1Cat) antibody (1:2000), or a monoclonal mouse anti-human MT1PEX antibody (222-1D8) (0.5 μg/ml).
# The activation of proMMP-2 by MT1-MMP on the cell surface requires the ternary complex formation of proMMP-2, TIMP-2 and MT1-MMP, and also the presence of TIMP-2-free MT1-MMP near the ternary complex. If TIMP-2-free MT1-MMP and the ternary complex are far apart, the activation should not occur. We thus hypothesized that MT1-MMP would form a homophilic complex on the cell surface to arrange the effective activation complex for MMP-2. […]
# MT1-MMP [1] = test: Activation of proMMP-2 by MT1-MMP on the cell surface of transfected cells (gelatin zymography); assay type: cell-based, human; details: transfected COS1 cells, exogenous purified proMMP-2 (FIGS. 2, 20)
# Description: Gelatin zymography was conducted using an SDS-polyacrylamide gel (PAGE) containing gelatin (0.8 mg/ml) (Itoh, Y. et al., J. Biol. Chem., 273: 24360-24367, 1998). The samples were mixed with a SDS-PAGE loading buffer without a reducing agent and subjected to electrophoretic analysis at room temperature. Enzyme activity was visualized as a negative staining area with Coomassie Brilliant Blue R-250.
# The expression construct for FLAG epitope ([…]-tagged MT1-MMP (MT1-F) described in Itoh, Y. et al., J. Biol. Chem., 274: 34260-34266, 1999 was used as a template to generate cDNA for MT1Cat-F (A Ile^318-Gly^535) by the PCR extension method of Ho et al., (Ho, S. N. et al., Gene, 77: 51-59, 1989). The cDNA was subcloned into pSG5 (Stratagene, CA, USA). The PCR-generated fragments were confirmed by DNA sequencing. COS1 cells were transfected with the expression vector for MT1-MMP mutant; MT1-F or MT1Cat-F, or a vector alone (Mock). Expression vectors for each protein were transfected using FuGENE6™ (Roche Molecular Biochemicals) according to the manufacturer's instructions. COS1 cells were seeded in 6-well plates at 1.5×10^5/well at 16 hrs before the transfection was performed. The COS1 cells were maintained in a HAM F-12 medium or DMEM containing 10% fetal bovine serum in a humidified incubator at 37° C. At 48 hrs after the transfection, the cells were collected for use in the experiments. The cells were incubated in the presence of purified proMMP-2 in a serum-free medium (0.25 μg/ml) at 37° C. for 18 hrs. Cell lysates were tested for the expression of the mutants, while culture supernatants were tested for the activation of proMMP-2.
# To investigate roles of dimer formation upon the activation of proMMP-2, MT1-F was introduced into COS1 cells together with MT1PEX-F. The co-introduced cells were reacted with exogenously added proMMP-2. Thus, COS1 cells were co-transfected with the MT1-F and MT1PEX-F at indicated DNA amount ratios. Next, purified proMMP-2 (0.25 μg/ml) in a serum-free medium was reacted with the resulting cells at 37° C. for 18 hrs. MMP-2 in the culture supernatant was analyzed by gelatin zymography, and the cell lysates were subjected to Western blotting analysis using a monoclonal anti-FLAG M2 antibody.
# (§1) Next, to determine if MT1PEX-F affects the catalytic activity of MT1-MMP on the cell surface or not, tests for gelatin degrading activity and binding capacity to TIMP-2 were conducted using cells transfected in the same incubator. As shown in FIGS. 12 through 14, CHO-K1 cells were transfected with an expression vector for MT1-F, MT1-F/MT1PEX-F or MT1Cat-F, or a vector alone (Mock). The cells were then treated with trypsin, and separately seeded to: DQ™ gelatin-coated cover slips for testing the proteolytic activity (FIG. 13); and 24-well plates for TIMP-2 binding assay (FIG. 12) and for the activation of proMMP-2 (FIG. 14). Transfected cells on the DQ™ gelatin-coated cover slip as shown in FIG. 13 were incubated in a medium at 37° C. for 18 hrs, and the generated fluorescence was analyzed using confocal microscopy. Transfected cells on the 24-well plate as shown in FIG. 12 were incubated with 25 nM ^125I-labeled TIMP-2 in the presence or absence of BB-94 (50 μM) at 0° C. for 1 hr. MT1-MMP specific binding was calculated by subtracting the datum obtained in the presence of BB-94 (50 μM) from each datum derived from the corresponding experiments. […] DQ™ gelatin is a fluorescence-quenched gelatin, which fluoresces upon proteolytic cleavage. […]
# MT1-MMP [2] = test: In situ gelatin degrading assay (DQ gelatin or Alexa488-conjugated gelatin); assay type: cell-based, human; details: DQ gelatin; CHO-K1 (FIG. 13) or COS1 cells (FIG. 22)
# Description: Two different in situ gelatin degrading assays were performed. One used DQ™ gelatin (Molecular Probes, Inc., OR, USA). DQ gelatin is a fluorescence-quenched gelatin substrate, and will fluoresce upon proteolytic cleavage. Glass cover slips were coated with 5% DQ™ gelatin in a 10 mg/ml unlabeled gelatin solution, and dried. Transfected cells were cultured on the cover slip in a humidified chamber for 16 hrs. The cells were then fixed with 3% para-formaldehyde and the degraded areas were visualized as those showing fluorescence.
# The other assay used Alexa488-conjugated gelatin made with an Alexa488-labeling kit (Molecular Probes). The bottom surfaces of 4-well chamber slides (Nunc) were coated with Alexa488-conjugated gelatin according to the method of Yana, I. and Weiss, S. J., Mol. Biol. Cell, 11, 2387-2401, 2000. Transfected COS1 cells were cultured in the chamber slides for 16 hrs in a humidified culture incubator. The cells were then fixed with 3% para-formaldehyde in PBS, and the degraded area was analyzed under a fluorescence microscope. The degraded area was visualized as a dark, non-fluorescent area. Fluorescence images were analyzed using confocal microscopy (BioRad).
# as §1, with “experiments. Identically transfected cells on the 24-well plate as shown in FIG. 14 were subjected to the reaction with purified proMMP-2 in a serum-free medium at 37° C. for 18 hrs. The cells and culture supernatants were respectively subjected to Western blotting analysis using a monoclonal anti-FLAG M2 antibody, and gelatin zymography analysis.” for “experiments.”
substance,measurement,setting,value
MT1Cat: MT1-MMP lacking the PEX domain (untagged),co-immunoprecipitation with MT1-F,MT1-F,not MT1Cat was co-immunoprecipitated with MT1-F
same,activation of proMMP-2 by cells expressing the mutant,MT1-MMP [1],cannot activate proMMP-2
same,gelatin degrading (proteolytic) activity of cells expressing the mutant,MT1-MMP [2],retains its proteolytic activity
